Results as given in the supplement of paper PMC10307832.

Key:
Test in all cases: relative viability (nuclei count vs DMSO), 5 days (fraction); higher = more cells survive
Alisertib + Navitoclax = compound: COc1cc(Nc2ncc3c(n2)-c2ccc(Cl)cc2C(c2c(F)cccc2OC)=NC3)ccc1C(=O)O [Alisertib] + CC1(C)CCC(c2ccc(Cl)cc2)=C(CN2CCN(c3ccc(C(=O)NS(=O)(=O)c4ccc(N[C@H](CCN5CCOCC5)CSc5ccccc5)c(S(=O)(=O)C(F)(F)F)c4)cc3)CC2)C1 [Navitoclax] (partner 0.5 µM)
Method in brief: (§1)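 After 5 days of treatment, lung cancer cells in 1536-well plates were fixed and stained in a single step (final 0.05% Triton X-100, 1% formaldehyde, 1 ug/ml Hoechst) and their nuclei counted on 4× images. Treatment had been applied by pin tool the day after seeding as one drug alone or as a fixed anchor-drug dose with five library-drug doses (not always all listed) in √10 steps. Relative viability is the nuclei count of treated wells divided by that of vehicle wells, and values are medians of duplicate plates.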

Alisertib + Pemetrexed = compound: COc1cc(Nc2ncc3c(n2)-c2ccc(Cl)cc2C(c2c(F)cccc2OC)=NC3)ccc1C(=O)O [Alisertib] + Nc1nc2[nH]cc(CCc3ccc(C(=O)N[C@@H](CCC(=O)O)C(=O)O)cc3)c2c(=O)[nH]1 [Pemetrexed] (partner 0.2 µM)
Method in brief: as §1

Alisertib + Linsitinib = compound: COc1cc(Nc2ncc3c(n2)-c2ccc(Cl)cc2C(c2c(F)cccc2OC)=NC3)ccc1C(=O)O [Alisertib] + C[C@]1(O)C[C@@H](c2nc(-c3ccc4ccc(-c5ccccc5)nc4c3)c3c(N)nccn32)C1 [Linsitinib] (partner 1 µM)
Method in brief: as §1

Alisertib + Vorinostat = compound: COc1cc(Nc2ncc3c(n2)-c2ccc(Cl)cc2C(c2c(F)cccc2OC)=NC3)ccc1C(=O)O [Alisertib] + O=C(CCCCCCC(=O)Nc1ccccc1)NO [Vorinostat] (partner 1 µM)
Method in brief: as §1

Cell Line	relative viability (Alisertib + Navitoclax; first compound 0.005 µM)	relative viability (Alisertib + Navitoclax; first compound 0.01581 µM)	relative viability (Alisertib + Navitoclax; first compound 0.05 µM)	relative viability (Alisertib + Navitoclax; first compound 0.1581 µM)	relative viability (Alisertib + Navitoclax; first compound 0.5 µM)	relative viability (Alisertib + Pemetrexed; first compound 0.005 µM)	relative viability (Alisertib + Pemetrexed; first compound 0.01581 µM)	relative viability (Alisertib + Pemetrexed; first compound 0.05 µM)	relative viability (Alisertib + Pemetrexed; first compound 0.1581 µM)	relative viability (Alisertib + Pemetrexed; first compound 0.5 µM)	relative viability (Alisertib + Linsitinib; first compound 0.005 µM)	relative viability (Alisertib + Linsitinib; first compound 0.01581 µM)	relative viability (Alisertib + Linsitinib; first compound 0.05 µM)	relative viability (Alisertib + Linsitinib; first compound 0.1581 µM)	relative viability (Alisertib + Linsitinib; first compound 0.5 µM)	relative viability (Alisertib + Vorinostat; first compound 0.005 µM)	relative viability (Alisertib + Vorinostat; first compound 0.01581 µM)	relative viability (Alisertib + Vorinostat; first compound 0.05 µM)	relative viability (Alisertib + Vorinostat; first compound 0.1581 µM)	relative viability (Alisertib + Vorinostat; first compound 0.5 µM)
201T	1.25	1.19	1.21	1.07	0.425	0.314	0.299	0.358	0.335	0.274	0.99	1.07	1	0.745	0.348	0.927	0.881	0.913	0.414	0.333
A-427	0.897	0.907	0.26	0.167	0.158	0.818	0.5	0.266	0.265	0.251	1.07	0.986	0.257	0.202	0.184	0.603	0.41	0.313	0.27	0.262
ABC-1	–	–	–	–	–	–	–	–	–	–	0.661	0.707	0.584	0.416	0.204	0.993	0.753	0.46	0.249	0.332
BEN	0.0634	0.063	0.0731	0.0469	0.0558	0.629	0.784	0.335	0.358	0.342	0.83	0.878	0.259	0.208	0.205	0.522	0.456	0.332	0.332	0.385
Calu-6	0.713	0.377	0.13	0.0974	0.107	–	–	–	–	–	0.733	0.763	0.295	0.129	0.162	–	–	–	–	–
ChaGo-K-1	1.01	0.8	0.313	0.286	0.239	0.238	0.281	0.238	0.189	0.169	–	–	–	–	–	0.653	0.643	0.24	0.207	0.161
IA-LM	0.654	0.59	0.313	0.164	0.0604	–	–	–	–	–	0.478	0.659	0.324	0.223	0.0931	0.986	0.87	0.564	0.189	0.0645
LCLC-103H	–	–	–	–	–	0.497	0.511	0.417	0.399	0.347	1.05	1.03	1.03	0.235	0.297	0.67	0.561	0.352	0.323	0.396
NCI-H358	–	–	–	–	–	0.162	0.165	0.167	0.112	0.0889	0.735	0.486	0.202	0.159	0.14	0.551	0.449	0.105	0.1	0.0875
NCI-H522	–	–	–	–	–	0.743	1.22	0.989	0.637	0.516	–	–	–	–	–	0.823	0.897	0.822	0.521	0.549
NCI-H650	–	–	–	–	–	0.739	0.825	0.35	0.262	0.2	0.614	0.727	0.437	0.217	0.188	0.263	0.414	0.144	0.17	0.131
NCI-H661	–	–	–	–	–	0.868	0.858	0.636	0.46	0.324	0.635	0.389	0.304	0.323	0.282	0.771	0.729	0.435	0.355	0.276
NCI-H727	0.389	0.477	0.183	0.166	0.152	–	–	–	–	–	0.415	0.366	0.216	0.242	0.194	1.19	0.986	0.939	0.471	0.561
NCI-H1563	–	–	–	–	–	0.806	0.807	0.683	0.543	0.663	1.04	1.01	1.01	0.935	0.744	–	–	–	–	–
NCI-H1648	–	–	–	–	–	–	0.658	0.752	0.27	0.276	–	–	–	–	–	–	0.22	0.315	0.235	0.236
NCI-H1650	0.967	0.613	0.286	0.145	0.131	0.402	0.362	0.256	0.223	0.189	–	–	–	–	–	0.57	0.488	0.388	0.176	0.185
NCI-H1703	1.2	0.837	0.317	0.156	0.126	–	–	–	–	–	0.65	0.626	0.563	0.177	0.164	–	–	–	–	–
NCI-H1792	0.608	0.6	0.494	0.096	0.0626	0.674	0.346	0.203	0.0756	0.0468	0.546	0.372	0.177	0.076	0.0631	–	–	–	–	–
NCI-H2170	0.564	0.55	0.238	0.232	0.178	0.267	0.282	0.236	0.209	0.183	–	–	–	–	–	0.766	0.782	0.318	0.2	0.164
NCI-H2342	–	–	–	–	–	0.774	0.75	0.57	0.542	0.418	–	–	–	–	–	0.65	0.662	0.61	0.464	0.397
SW 900	–	–	–	–	–	0.445	0.459	0.438	0.178	0.194	–	–	–	–	–	0.351	0.369	0.476	0.221	0.223
